In test [1] the test system is E. coli KC-14. In words: Therapeutic effect on infection in mice, E. coli. It is filed as in vivo, ddY strain male mice. The conditions noted are these: E. coli KC-14, 5.1×10^4 CFU/mouse i.p.; drug orally once 2 hours after inoculation; survival after one week, Probit method. The method, then: (§1) Test method: E. coli KC-14 and P. aeruginosa E-2 were suspended in 5% mucin and 0.5 ml of the suspension was injected intraperitoneally to ddY strain male mice (body weight: ca. 20 g; four weeks age; 10 mice per group). The amount of the bacteria inoculated was 5.1×10^4 CFU/mouse for E. coli and 7.5×10^4 CFU/mouse for P. aeruginosa. The drug was given orally once after 2 hours of inoculation and, out of the survival rate after one week, an ED50 was calculated by a Probit method. Ofloxacin was used as the comparison/control.

For test [2], the system named is P. aeruginosa E-2. The test can be described thus: Therapeutic effect on infection in mice, P. aeruginosa. The class given is in vivo, ddY strain male mice. The note with it: P. aeruginosa E-2, 7.5×10^4 CFU/mouse i.p.; drug orally once 2 hours after inoculation; survival after one week, Probit method. The method, then: as §1
The test system of test [3] is Shigella flexneri 2a EW-10. In words: MIC by agar plate dilution method. The class given is cell-based. The conditions noted are these: 2AEW10, 10^6 CFU/ml, 37° C., 18 hours. The method, then: (§2) Test Method: In accordance with a standard method by Japan Chemotherapeutic Society [Chemotherapy, 29(1), pages 76-79, 1981], agar plate dilution method was used and the MIC was measured. Thus, bouillon for measuring sensitivity was used and the bacterial liquid cultured at 37° C. for 18 hours was diluted to an extent of 10^6 CFU/ml using said medium. This was inoculated to an agar medium containing drug for measuring sensitivity using a microplanter, cultured at 37° C. for 18 hours, and MIC was measured. Ofloxacin was used for comparison/control.
(§3) The compound of Example 2 was used as representative of the compounds of the present invention and ofloxacin was used as the Comparison/Control.

The subject of test [4] is Staphylococcus aureus 209-P JC-1. In words: MIC by agar plate dilution method. The class given is cell-based. The conditions noted are these: 10^6 CFU/ml, 37° C., 18 hours. The method, then:
as §2, §3

Test [5] relates to Klebsiella pneumoniae NCTC 9632. The test can be described thus: MIC by agar plate dilution method. The class given is cell-based. The method, then:
as §2, §3

The test system of test [6] is Serratia marcescens IFO 3736. The test can be described thus: MIC by agar plate dilution method. The class given is cell-based. The conditions noted are these: IFO3736, 10^6 CFU/ml, 37° C., 18 hours. The protocol:
as §2, §3

In test [7] the test system is Pseudomonas aeruginosa IFO 3445. The test can be described thus: MIC by agar plate dilution method. It is filed as cell-based. The conditions noted are these: IFO3445, 10^6 CFU/ml, 37° C., 18 hours. The protocol:
as §2, §3

For test [8], the system named is Escherichia coli N1JH JC-2. In words: MIC by agar plate dilution method. It is filed as cell-based. The method, then:
as §2, §3

Test [9] concerns Streptococcus pneumoniae Type I. In words: MIC by agar plate dilution method. It is filed as cell-based. The note with it: 10^6 CFU/ml, 37° C., 18 hours. The protocol: as §2, §3
Test [10] has as its system Bacillus subtilis ATCC 6633. In words: MIC by agar plate dilution method. It is filed as cell-based. The note with it: ATCC6633, 10^6 CFU/ml, 37° C., 18 hours. The method, then:
as §2, §3

In test [11] the test system is Streptococcus pyogenes S-23. In words: MIC by agar plate dilution method. The class given is cell-based. The conditions noted are these: S23, 10^6 CFU/ml, 37° C., 18 hours. The method, then:
as §2, §3

The subject of test [12] is Proteus mirabilis IFO 3849. The test can be described thus: MIC by agar plate dilution method. It is filed as cell-based. The note with it: IFO3849, 10^6 CFU/ml, 37° C., 18 hours. The method, then: as §2, §3

Values after ≈ are worked out from the molar mass of the structure shown. Read-outs that look alike come from different tables or passages of the source.

What is called MIC is the lowest concentration that inhibits growth of the organism.

On to `CS(=O)(=O)O.Cc1oc(=O)oc1CN1CCN(c2cc3c(cc2F)c(=O)c(C(=O)O)c2n3C(C)S2)CC1` (stereo not drawn) [Example 4, 6-Fluoro-1-methyl-7-[4-(5-methyl-2-oxo-1,3-dioxolen-4-yl)methyl-1-piperazinyl]-4-oxo-4H-[1,3]thiazeto[3,2-a]quinoline-3-carboxylic acid methanesulfonate], for which the ED50 is 0.0078 mg/mouse in [1] and 0.125 mg/mouse in test [2].
`Cc1oc(=O)oc1CN1CCN(c2c(F)cc3c(=O)c(C(=O)O)c4n(c3c2F)C(C)S4)CC1` (stereo not drawn) [Example 8, 6,8-Difluoro-1-methyl-7-[4-(5-methyl-2-oxo-1,3-dioxolen-4-yl)methyl-1-piperazinyl]-4-oxo-4-[1,3]-thiazeto[3,2-a]quinoline-3-carboxylic acid]: the ED50 in test [1] was 0.0078 mg/mouse; in test [2], 0.125 mg/mouse.
`Cc1oc(=O)oc1CN1CCN(c2cc3c(cc2F)c(=O)c(C(=O)O)c2n3C(C)S2)CC1` (stereo not drawn) [Example 2]: the MIC in test [3] is 0.0125 µg/mL (≈ 0.0271 µM); in test [4], 0.1 µg/mL (≈ 0.217 µM); in test [5] (Klebsiella pneumoniae, NCTC9632, 18 h), 0.0125 µg/mL (≈ 0.0271 µM); in test [6], 0.2 µg/mL (≈ 0.433 µM); in test [7] it was 0.2 µg/mL (≈ 0.433 µM); in test [8] (Escherichia coli, N1JHJC2, 18 h) it was 0.0125 µg/mL (≈ 0.0271 µM). Also, the MIC was determined as 0.39 µg/mL (≈ 0.845 µM) in test [9], 0.05 µg/mL (≈ 0.108 µM) in test [10], 0.39 µg/mL (≈ 0.845 µM) in [11] and 0.025 µg/mL (≈ 0.0542 µM) in test [12]. The ED50 stood at 0.0078 mg/mouse in test [1] and 0.154 mg/mouse in test [2].
`CCOC(=O)c1c2n(c3cc(N4CCN(Cc5oc(=O)oc5C)CC4)c(F)cc3c1=O)C(C)S2` (stereo not drawn) [Example 1, Ethyl 6-fluoro-1-methyl-7-[4-(5-methyl-2-oxo-1,3-dioxolen-4yl)methyl-1-piperazinyl]-4oxo-4H-[1,3-]thiazeto[3,2-a]quinoline-3-carboxylate] returned an ED50 in [2] of 0.354 mg/mouse.
For the compound `Cc1oc(=O)oc1CN1CCN(c2cc3c(cc2F)c(=O)c(C(=O)O)c2n3C(C)S2)CC1.Cl` (stereo not drawn) [Example 3, 6-Fluoro-1-methyl-7-[4-(5-methyl-2-oxo-1,3-dioxolen-4-yl)methyl-1-piperazinyl]-4-oxo-4H-[1,3]thiazeto[3,2-a]quinoline-3-carboxylic acid hydrochloride], the figures for the ED50 in [1] and in test [2] were 0.0078 mg/mouse and 0.125 mg/mouse, respectively.
As for `COc1c(N2CCN(Cc3oc(=O)oc3C)CC2)c(F)cc2c(=O)c(C(=O)O)c3n(c12)C(C)S3` (stereo not drawn) [Example 14, 6-Fluoro-8-methoxy-1-methyl-7-[4-(5-methyl-2-oxo-1,3-dioxolen-4-yl)methyl-1-piperazinyl]-4-oxo-4H-[1,3]-thiazeto[3,2-a]quinoline-3-carboxylic acid], the ED50 in test [1] is listed as 0.0152 mg/mouse; in test [2], 0.427 mg/mouse.
Regarding `CC1COc2c(N3CCN(C)CC3)c(F)cc3c(=O)c(C(=O)O)cn1c23` (racemic) [Ofloxacin, reference compound], the MIC stood at 0.025 µg/mL (≈ 0.0692 µM) in test [3]; 0.39 µg/mL (≈ 1.08 µM) in [4]; 0.05 µg/mL (≈ 0.138 µM) in [5] (NCTC9632, Klebsiella pneumoniae NCTC 9632, 10^6 CFU/ml, 37° C., 18 hours, read-out: MIC); 0.78 µg/mL (≈ 2.16 µM) in [6]; 1.56 µg/mL (≈ 4.32 µM) in test [7]; 0.1 µg/mL (≈ 0.277 µM) in test [8] (N1JHJC2, Escherichia coli N1JH JC-2, 10^6 CFU/ml, 37° C., 18 hours, read-out: MIC). Besides, the minimal inhibitory concentration (MIC) came out at 1.56 µg/mL (≈ 4.32 µM) in [9], 0.1 µg/mL (≈ 0.277 µM) in test [10], 1.56 µg/mL (≈ 4.32 µM) in test [11] and 0.39 µg/mL (≈ 1.08 µM) in [12]. Further, the results for the ED50 in test [1] and in test [2] were 0.011 mg/mouse and 0.692 mg/mouse, respectively.

The record behind these values is patent US5086049A, “7[4-(5 methyl-2-oxo-1,3-dioxalen-4-yl)methyl 1-piperzinyl]-4-oxo-4H-[1,3]thiazeto[3,2-a]quinoline-3-carboxylic acids” (Nipponshinyaku Co., Ltd., priority 1987, dated 1992).
